Experiment in all cases: Tyrosine kinase inhibition assay
Holding throughout (format): biochemical
Common to all, as to settings: single concentration 1.0 μM, read-out: percent inhibition

The target in one experiment is INSR (Homo sapiens, UniProt P06213). In a few lines:
(§1)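 Peptide/kinase mixtures and ATP (apparent Km) are combined in 50 mM HEPES pH 7.5 kinase buffer with 10 mM MgCl2, 1 mM EGTA and 0.01% BRIJ-35, compound at 1.0 μM in 1% DMSO. Development reagent is then added and percent inhibition calculated.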

A further experiment has as its target T1, TNK1 (Homo sapiens, UniProt Q13470).
T1 sequence (Q13470 1-666): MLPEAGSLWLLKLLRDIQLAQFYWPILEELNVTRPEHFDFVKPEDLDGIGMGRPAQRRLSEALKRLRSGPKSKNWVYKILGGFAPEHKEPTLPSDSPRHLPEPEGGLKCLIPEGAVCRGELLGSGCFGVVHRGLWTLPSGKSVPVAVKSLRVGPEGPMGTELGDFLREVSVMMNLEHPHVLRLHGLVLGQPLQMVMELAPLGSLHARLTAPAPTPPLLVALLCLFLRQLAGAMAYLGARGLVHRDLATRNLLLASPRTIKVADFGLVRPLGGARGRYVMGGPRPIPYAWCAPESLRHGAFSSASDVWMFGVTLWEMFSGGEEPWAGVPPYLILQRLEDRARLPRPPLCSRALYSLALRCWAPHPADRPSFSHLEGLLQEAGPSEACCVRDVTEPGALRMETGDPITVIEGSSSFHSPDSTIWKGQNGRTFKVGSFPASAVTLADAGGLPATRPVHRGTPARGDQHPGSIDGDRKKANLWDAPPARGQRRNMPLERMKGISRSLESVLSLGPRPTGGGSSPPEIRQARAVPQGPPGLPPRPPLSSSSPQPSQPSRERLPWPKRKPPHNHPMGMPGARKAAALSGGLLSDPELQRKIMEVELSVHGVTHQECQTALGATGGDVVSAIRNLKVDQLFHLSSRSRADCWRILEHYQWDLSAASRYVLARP
In a few lines: as §1

The next experiment addresses AURKB (Aurora B) (Homo sapiens, UniProt Q96GD4). In a few lines: as §1
Another experiment addresses T2, AURKC (Aurora C) (Homo sapiens, UniProt Q9UQB9).
T2 sequence (Q9UQB9 1-309): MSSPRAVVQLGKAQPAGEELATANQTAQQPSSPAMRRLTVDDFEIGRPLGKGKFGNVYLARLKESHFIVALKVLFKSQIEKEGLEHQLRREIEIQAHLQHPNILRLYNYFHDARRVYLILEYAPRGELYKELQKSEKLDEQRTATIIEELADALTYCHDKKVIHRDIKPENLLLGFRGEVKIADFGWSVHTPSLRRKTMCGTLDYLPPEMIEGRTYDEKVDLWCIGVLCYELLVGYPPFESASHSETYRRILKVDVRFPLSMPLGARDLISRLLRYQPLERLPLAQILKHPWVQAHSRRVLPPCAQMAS
In a few lines: as §1

The next experiment concerns the target YES1 (Homo sapiens, UniProt P07947). In a few lines: as §1
The target of a further experiment is EPHA5 (Homo sapiens, UniProt P54756). In a few lines: as §1
For a further experiment, the target named is MAPK8 (JNK1) (Homo sapiens, UniProt P45983). In a few lines: as §1
Chain of MAPK8 (JNK1) (P45983 whole entry): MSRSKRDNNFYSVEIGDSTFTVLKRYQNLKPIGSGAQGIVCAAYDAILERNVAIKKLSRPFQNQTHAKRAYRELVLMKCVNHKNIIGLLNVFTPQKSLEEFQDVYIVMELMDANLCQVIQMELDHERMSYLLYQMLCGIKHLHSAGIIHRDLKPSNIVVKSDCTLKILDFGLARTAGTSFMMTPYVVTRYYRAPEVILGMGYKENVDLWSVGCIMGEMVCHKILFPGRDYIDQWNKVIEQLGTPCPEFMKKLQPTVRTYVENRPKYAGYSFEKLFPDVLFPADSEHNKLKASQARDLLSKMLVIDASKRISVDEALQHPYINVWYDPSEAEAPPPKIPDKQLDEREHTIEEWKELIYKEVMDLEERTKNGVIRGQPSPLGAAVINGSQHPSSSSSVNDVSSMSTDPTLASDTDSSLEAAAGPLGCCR
The target of experiment [1] is PIK3CD/PIK3R1 (p110 delta/p85 alpha) (Homo sapiens, UniProt O00329). In a few lines: as §1
Chain of PIK3CD/PIK3R1 (p110 delta/p85 alpha) (O00329 whole entry): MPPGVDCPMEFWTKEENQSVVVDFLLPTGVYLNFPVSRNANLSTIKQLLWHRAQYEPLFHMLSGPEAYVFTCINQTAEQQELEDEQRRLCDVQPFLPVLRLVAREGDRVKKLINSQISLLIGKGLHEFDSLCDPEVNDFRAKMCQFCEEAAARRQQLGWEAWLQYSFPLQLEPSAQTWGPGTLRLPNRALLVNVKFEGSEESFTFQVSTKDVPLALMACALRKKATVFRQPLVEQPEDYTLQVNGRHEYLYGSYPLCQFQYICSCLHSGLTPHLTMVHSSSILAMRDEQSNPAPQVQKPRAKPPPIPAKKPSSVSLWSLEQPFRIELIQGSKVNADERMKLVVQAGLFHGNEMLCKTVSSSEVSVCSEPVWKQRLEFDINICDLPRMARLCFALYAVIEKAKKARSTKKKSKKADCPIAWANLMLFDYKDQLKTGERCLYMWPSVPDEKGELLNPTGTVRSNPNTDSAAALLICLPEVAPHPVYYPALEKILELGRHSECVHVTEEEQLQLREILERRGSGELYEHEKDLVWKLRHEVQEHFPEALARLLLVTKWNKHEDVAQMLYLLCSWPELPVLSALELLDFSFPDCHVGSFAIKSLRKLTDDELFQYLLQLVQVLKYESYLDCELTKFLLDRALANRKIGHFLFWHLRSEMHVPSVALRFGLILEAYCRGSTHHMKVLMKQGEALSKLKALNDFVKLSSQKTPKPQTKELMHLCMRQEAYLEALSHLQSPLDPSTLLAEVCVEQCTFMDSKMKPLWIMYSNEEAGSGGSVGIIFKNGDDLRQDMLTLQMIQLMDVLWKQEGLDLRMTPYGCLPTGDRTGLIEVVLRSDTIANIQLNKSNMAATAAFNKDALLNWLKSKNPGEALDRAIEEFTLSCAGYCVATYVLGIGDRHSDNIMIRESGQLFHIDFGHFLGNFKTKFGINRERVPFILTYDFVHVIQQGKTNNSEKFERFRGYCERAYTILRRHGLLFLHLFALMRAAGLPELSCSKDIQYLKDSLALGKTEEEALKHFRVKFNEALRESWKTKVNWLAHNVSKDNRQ
Chain of PIK3CD/PIK3R1 (p110 delta/p85 alpha) (P27986 whole entry partner): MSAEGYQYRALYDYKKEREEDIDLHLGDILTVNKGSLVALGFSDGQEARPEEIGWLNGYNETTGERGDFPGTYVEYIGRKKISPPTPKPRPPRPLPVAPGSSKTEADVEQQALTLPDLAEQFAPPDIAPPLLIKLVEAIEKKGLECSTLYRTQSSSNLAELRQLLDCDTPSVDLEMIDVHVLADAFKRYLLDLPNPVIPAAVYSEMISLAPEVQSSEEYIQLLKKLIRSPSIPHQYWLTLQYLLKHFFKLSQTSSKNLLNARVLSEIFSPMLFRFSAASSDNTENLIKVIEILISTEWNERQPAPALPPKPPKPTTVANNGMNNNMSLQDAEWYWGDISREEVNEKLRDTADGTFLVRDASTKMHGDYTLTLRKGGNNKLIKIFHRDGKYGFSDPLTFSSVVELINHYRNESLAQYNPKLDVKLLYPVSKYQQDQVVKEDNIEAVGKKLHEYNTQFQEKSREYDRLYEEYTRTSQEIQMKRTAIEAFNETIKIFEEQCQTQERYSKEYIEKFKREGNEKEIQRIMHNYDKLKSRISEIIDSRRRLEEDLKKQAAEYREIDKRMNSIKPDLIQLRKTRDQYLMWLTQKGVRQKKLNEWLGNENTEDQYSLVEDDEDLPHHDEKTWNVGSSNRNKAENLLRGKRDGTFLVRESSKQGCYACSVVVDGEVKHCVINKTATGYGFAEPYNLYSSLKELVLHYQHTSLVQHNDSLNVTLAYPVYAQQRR
For the next experiment, the target named is RAF1 (cRAF) Y340D Y341D (Homo sapiens, UniProt P04049, Y340D/Y341D). In a few lines:
as §1

For another experiment, the target named is T3, EPHB1 (Homo sapiens, UniProt P54762).
T3 sequence (P54762 18-984): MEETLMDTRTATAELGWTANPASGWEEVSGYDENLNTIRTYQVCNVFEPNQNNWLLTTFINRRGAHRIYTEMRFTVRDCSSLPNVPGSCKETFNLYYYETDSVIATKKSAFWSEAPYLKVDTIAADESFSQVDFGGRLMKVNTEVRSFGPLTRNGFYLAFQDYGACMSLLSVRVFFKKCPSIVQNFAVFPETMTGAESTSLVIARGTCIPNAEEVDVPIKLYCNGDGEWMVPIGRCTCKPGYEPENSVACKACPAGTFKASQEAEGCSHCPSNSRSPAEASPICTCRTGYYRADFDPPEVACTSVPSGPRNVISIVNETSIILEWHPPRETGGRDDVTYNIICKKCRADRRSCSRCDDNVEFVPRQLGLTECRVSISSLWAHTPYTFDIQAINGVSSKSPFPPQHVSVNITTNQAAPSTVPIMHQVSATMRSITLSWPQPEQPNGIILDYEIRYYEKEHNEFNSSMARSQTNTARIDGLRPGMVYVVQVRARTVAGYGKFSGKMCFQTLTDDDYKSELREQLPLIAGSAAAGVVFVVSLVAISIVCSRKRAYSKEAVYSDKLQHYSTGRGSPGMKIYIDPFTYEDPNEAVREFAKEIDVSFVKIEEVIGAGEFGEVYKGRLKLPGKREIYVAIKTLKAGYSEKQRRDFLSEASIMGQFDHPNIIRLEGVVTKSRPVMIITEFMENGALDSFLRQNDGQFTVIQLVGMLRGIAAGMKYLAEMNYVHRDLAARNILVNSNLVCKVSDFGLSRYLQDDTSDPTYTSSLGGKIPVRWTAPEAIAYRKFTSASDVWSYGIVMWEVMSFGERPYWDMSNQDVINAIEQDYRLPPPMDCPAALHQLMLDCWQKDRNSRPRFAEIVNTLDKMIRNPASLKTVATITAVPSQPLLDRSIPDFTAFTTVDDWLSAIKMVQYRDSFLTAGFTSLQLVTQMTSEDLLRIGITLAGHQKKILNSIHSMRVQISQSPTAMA
In a few lines: as §1

SMILES strings stand for the structures.

Chain of INSR (P06213 28-1382): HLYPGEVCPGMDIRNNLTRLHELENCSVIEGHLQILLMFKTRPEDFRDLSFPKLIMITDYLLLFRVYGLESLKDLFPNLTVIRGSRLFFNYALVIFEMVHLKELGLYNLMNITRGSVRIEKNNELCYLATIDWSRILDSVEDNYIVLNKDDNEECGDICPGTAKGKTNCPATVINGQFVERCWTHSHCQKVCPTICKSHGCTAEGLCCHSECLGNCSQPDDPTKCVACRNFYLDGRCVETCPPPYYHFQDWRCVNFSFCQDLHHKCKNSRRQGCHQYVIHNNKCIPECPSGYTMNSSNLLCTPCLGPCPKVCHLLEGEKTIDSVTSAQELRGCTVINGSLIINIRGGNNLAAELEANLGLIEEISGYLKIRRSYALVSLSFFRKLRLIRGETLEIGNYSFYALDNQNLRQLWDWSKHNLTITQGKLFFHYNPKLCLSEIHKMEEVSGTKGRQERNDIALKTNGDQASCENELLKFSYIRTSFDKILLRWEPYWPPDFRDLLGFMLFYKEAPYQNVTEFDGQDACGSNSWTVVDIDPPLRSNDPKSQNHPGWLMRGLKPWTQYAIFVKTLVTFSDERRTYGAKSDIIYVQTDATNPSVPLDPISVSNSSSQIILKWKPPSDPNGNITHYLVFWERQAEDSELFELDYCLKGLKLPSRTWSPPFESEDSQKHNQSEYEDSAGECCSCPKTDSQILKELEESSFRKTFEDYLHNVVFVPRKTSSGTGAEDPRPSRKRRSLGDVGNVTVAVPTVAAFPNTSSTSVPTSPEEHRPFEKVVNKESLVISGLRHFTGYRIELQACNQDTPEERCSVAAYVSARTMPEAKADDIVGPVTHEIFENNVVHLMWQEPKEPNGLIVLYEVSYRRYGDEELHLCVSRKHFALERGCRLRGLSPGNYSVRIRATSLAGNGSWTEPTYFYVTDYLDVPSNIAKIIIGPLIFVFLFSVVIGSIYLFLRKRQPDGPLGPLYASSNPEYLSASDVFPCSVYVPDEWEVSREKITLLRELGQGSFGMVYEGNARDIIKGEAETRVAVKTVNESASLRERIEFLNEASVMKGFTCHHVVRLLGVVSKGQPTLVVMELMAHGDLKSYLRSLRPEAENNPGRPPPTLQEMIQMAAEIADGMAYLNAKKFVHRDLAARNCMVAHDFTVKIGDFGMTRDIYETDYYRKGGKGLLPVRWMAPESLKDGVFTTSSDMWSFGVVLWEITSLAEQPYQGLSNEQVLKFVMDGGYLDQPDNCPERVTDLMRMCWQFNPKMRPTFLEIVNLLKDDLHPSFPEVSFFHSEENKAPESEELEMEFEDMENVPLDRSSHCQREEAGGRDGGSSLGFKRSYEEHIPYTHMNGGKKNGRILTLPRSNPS
Chain of RAF1 (cRAF) Y340D Y341D (P04049 whole entry Y340D/Y341D): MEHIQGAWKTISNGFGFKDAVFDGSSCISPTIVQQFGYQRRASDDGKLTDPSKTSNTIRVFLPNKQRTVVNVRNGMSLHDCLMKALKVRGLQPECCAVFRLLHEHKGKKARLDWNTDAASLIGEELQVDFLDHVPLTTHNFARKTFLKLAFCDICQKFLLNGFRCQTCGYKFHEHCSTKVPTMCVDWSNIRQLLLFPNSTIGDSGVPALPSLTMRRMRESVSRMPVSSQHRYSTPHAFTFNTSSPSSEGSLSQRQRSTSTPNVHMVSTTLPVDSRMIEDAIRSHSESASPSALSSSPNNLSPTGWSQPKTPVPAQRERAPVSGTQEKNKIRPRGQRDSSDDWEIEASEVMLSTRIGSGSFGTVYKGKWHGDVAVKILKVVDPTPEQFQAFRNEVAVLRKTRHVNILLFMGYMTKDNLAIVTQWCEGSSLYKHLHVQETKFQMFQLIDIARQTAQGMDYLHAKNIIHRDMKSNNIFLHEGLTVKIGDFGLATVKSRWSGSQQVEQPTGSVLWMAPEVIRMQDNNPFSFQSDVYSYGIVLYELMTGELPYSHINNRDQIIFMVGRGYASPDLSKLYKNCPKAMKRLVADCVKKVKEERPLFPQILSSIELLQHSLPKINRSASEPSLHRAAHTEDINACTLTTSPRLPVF
Chain of YES1 (P07947 whole entry): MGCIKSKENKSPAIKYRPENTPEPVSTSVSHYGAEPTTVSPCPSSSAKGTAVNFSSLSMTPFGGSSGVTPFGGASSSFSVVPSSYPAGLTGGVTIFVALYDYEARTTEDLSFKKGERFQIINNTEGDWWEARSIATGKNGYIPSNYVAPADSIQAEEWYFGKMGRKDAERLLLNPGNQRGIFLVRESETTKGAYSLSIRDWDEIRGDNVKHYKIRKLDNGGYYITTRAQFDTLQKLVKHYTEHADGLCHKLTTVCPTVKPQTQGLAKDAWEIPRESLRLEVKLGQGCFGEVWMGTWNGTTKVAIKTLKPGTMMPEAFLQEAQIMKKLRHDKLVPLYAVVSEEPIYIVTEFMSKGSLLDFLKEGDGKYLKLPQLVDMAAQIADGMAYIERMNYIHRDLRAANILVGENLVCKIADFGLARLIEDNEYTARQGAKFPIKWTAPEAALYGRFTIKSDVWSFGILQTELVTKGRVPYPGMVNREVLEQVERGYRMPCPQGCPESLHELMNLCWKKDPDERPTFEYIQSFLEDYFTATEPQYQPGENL

As to `COc1cc2nccc(Oc3ccc(NC(=O)C4(C(=O)Nc5ccc(F)cc5)CC4)cc3)c2cc1OC` [Cabozantinib, reference compound], the inhibition (as a rule, the drop in the measured response relative to a control, in per cent) at 1 µM at INSR amounted to 16%; at TNK1, 74%; at AURKB (Aurora B), 84%; on AURKC (Aurora C), 59%; at YES1, 63%; on EPHA5, 100%. Also, the inhibition at 1 µM was -2% at MAPK8 (JNK1), -1% in experiment [1], 66% on RAF1 (cRAF) Y340D Y341D and 99% at EPHB1.

In the case of `COc1cc2nccc(Oc3ccc(NC(=O)C4(NC(=O)c5ccc(F)cc5)CC4)cc3F)c2cc1OC` [Cbo-02, N-(1-((4-((6,7-diMethoxyquinolin-4-yl)oxy)-3-fluorophenyl)carbamoyl)cyclopropyl)-4-fluorobenzamide], the inhibition at 1 µM on INSR was found to be 30%; at TNK1, 17%; at AURKB (Aurora B), 99%; at AURKC (Aurora C), 74%; at YES1, 34%; at EPHA5, 41%. The inhibition at 1 µM at MAPK8 (JNK1) was 5%; in [1], -6%; on RAF1 (cRAF) Y340D Y341D, -8%; on EPHB1, 37%.

With `COc1cc2nccc(Oc3ccc(NC(=O)C4(NC(=O)c5ccc(F)cc5)CC4)cc3F)c2cc1Oc1ccc(N)cc1F` [Cbo-10], the inhibition at 1 µM worked out at 69% at INSR; 39% at TNK1; 83% at AURKB (Aurora B); 63% on AURKC (Aurora C); 64% on YES1; 87% on EPHA5. Besides, the inhibition at 1 µM on MAPK8 (JNK1) was 32%; in experiment [1], 12%; on RAF1 (cRAF) Y340D Y341D, 3%; on EPHB1, 74%.

Regarding `COc1cc2nccc(Oc3ccc(NC(=O)C4(NC(=O)c5ccc(F)cc5)CC4)cc3F)c2cc1Oc1c(F)cc(N)cc1F` [Cbo-14], the inhibition at 1 µM on INSR worked out at 70%; at TNK1 it was 64%; on AURKB (Aurora B) it was 84%; at AURKC (Aurora C) it was 59%; on YES1, 63%; at EPHA5, 92%. Besides, the inhibition at 1 µM on MAPK8 (JNK1) amounted to 41%; in experiment [1] it was 16%; on RAF1 (cRAF) Y340D Y341D, 3%; on EPHB1, 75%.

`COc1cc2nccc(Oc3ccc(NC(=O)C4(C(=O)Nc5ccc(F)cc5)CC4)cc3F)c2cc1Oc1ccc(N)cc1F` [Cbo-23]: the inhibition at 1 µM at INSR is 54%; on TNK1 it was 92%; on AURKB (Aurora B), 67%; on AURKC (Aurora C), 41%; at YES1, 94%; on EPHA5 it was 99%. Also, the inhibition at 1 µM was -2% on MAPK8 (JNK1), 2% in [1], 40% at RAF1 (cRAF) Y340D Y341D and 99% at EPHB1.

Source of the values: patent US20250120967A1, “TYROSINE KINASES INHIBITORS AND USES THEREOF” (GREAT NOVEL THERAPEUTICS BIOTECH & MEDICALS CORPORATION, priority 2023, published 2025).
